From patent US20250084095A1, “Aminopyrimidine Derivatives as Cyclin-Dependent Kinase Inhibitors” (Accutar Biotechnology Inc., priority 2023, published 2025)

Columns and labels:
[1] = system: 22RV1 cells; experiment: Cell growth inhibition of 22RV1 cells (CellTiter-Glo); type: cell-based; settings: Homo sapiens, 22Rv1, 120 h, 5 days, CellTiter-Glo, read-out: 22RV1 Cell Growh GI50
Summary of the method: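 22RV1 cells were plated in RPMI1640 with FBS (20% in one version, 10% in the other) and dosed next day at various concentrations from DMSO stocks. After 5 days at 37 °C, viability was measured by CellTiter-Glo luminescence.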

[2] = system: Phospho-Rb (Ser807/811) in MCF7 cells; experiment: Phospho-Rb expression inhibition in MCF7 cells quantified by in cell Western; type: cell-based, human; settings: Homo sapiens, MCF7, 24 h, 24 hours, in cell Western, read-out: MCF7 pRb IC50
Summary of the method: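 MCF7 cells were seeded at 20,000/well, grown overnight, then treated 24 h at 37 °C with compound dilutions (0.1% DMSO from 1000× stocks). Fixed cells were co-stained for phospho-Rb Ser807/811 and total Rb. Near-infrared dual-channel in-cell Western imaging was the read-out.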

SMILES	GI50 [1] [nM]	IC50 [2] [nM]
CC(C)(O)c1cnc2c(F)cc(-c3nc(N[C@@H]4C[C@H]5CO[C@H](O5)[C@H]4O)ncc3F)cc2c1Cl [Compound 255, (1S,3R,4S,5R)-3-((4-(4-chloro-8-fluoro-3-(2-hydroxypropan-2-yl)quinolin-6-yl)-5-fluoropyrimidin-2-yl)amino)-6,8-dioxabicyclo[3.2.1]octan-4-ol]	≤ 120	≤ 40
Cc1c(C(C)(C)O)cnc2c(F)cc(-c3nc(N[C@@H]4C[C@H]5CO[C@H](O5)[C@H]4O)ncc3F)cc12 [Compound 256, (1S,3R,4S,5R)-3-((5-fluoro-4-(8-fluoro-3-(2-hydroxypropan-2-yl)-4-methylquinolin-6-yl)pyrimidin-2-yl)amino)-6,8-dioxabicyclo[3.2.1]octan-4-ol]	≤ 120	≤ 40
Cc1c(C(C)(C)O)cnc2c(F)cc(-c3nc(N[C@@H]4C[C@H]5CO[C@H](O5)[C@H]4O)ncc3Cl)cc12 [Compound 257, (1S,3R,4S,5R)-3-((5-chloro-4-(8-fluoro-3-(2-hydroxypropan-2-yl)-4-methylquinolin-6-yl)pyrimidin-2-yl)amino)-6,8-dioxabicyclo[3.2.1]octan-4-ol]	≤ 120	≤ 40
Cc1c(-c2nc(N[C@@H]3C[C@H]4CO[C@H](O4)[C@H]3O)ncc2Cl)sc2c(C(C)C)cnnc12 [Compound 259, (1S,3R,4S,5R)-3-((5-chloro-4-(4-isopropyl-7-methylthieno[3,2-c]pyridazin-6-yl)pyrimidin-2-yl)amino)-6,8-dioxabicyclo[3.2.1]octan-4-ol]	≤ 120	≤ 40
COC(=O)N1CC[C@@H](c2nc3c(F)cc(-c4nc(N[C@@H]5C[C@H]6CO[C@H](O6)[C@H]5O)ncc4F)cc3n2C(C)C)C1 [Compound 265, methyl (R)-3-(4-fluoro-6-(5-fluoro-2-(((1S,3R,4S,5R)-4-hydroxy-6,8-dioxabicyclo[3.2.1]octan-3-yl)amino)pyrimidin-4-yl)-1-isopropyl-1H-benzo[d]imidazol-2-yl)pyrrolidine-1-carboxylate]	120 to 450	40 to 150
CC(C)n1c([C@@H]2CCOC2)nc2c(F)cc(-c3nc(N[C@@H]4C[C@H]5CO[C@H](O5)[C@H]4O)ncc3Cl)cc21 [Compound 268, (1S,3R,4S,5R)-3-((5-chloro-4-(4-fluoro-1-isopropyl-2-((S)-tetrahydrofuran-3-yl)-1H-benzo[d]imidazol-6-yl)pyrimidin-2-yl)amino)-6,8-dioxabicyclo[3.2.1]octan-4-ol]	≤ 120	≤ 40
CC(C)n1c([C@H]2CCOC2)nc2c(F)cc(-c3nc(N[C@@H]4C[C@H]5CO[C@H](O5)[C@H]4O)ncc3F)cc21 [Compound 269, (1S,3R,4S,5R)-3-((5-fluoro-4-(4-fluoro-1-isopropyl-2-((R)-tetrahydrofuran-3-yl)-1H-benzo[d]imidazol-6-yl)pyrimidin-2-yl)amino)-6,8-dioxabicyclo[3.2.1]octan-4-ol]	120 to 450	40 to 150
CC(C)n1c([C@@H]2CCOC2)nc2c(F)cc(-c3nc(N[C@@H]4C[C@H]5CO[C@H](O5)[C@H]4O)ncc3F)cc21 [Compound 270, (1S,3R,4S,5R)-3-((5-fluoro-4-(4-fluoro-1-isopropyl-2-((S)-tetrahydrofuran-3-yl)-1H-benzo[d]imidazol-6-yl)pyrimidin-2-yl)amino)-6,8-dioxabicyclo[3.2.1]octan-4-ol]	120 to 450	40 to 150
Cc1c(-c2nc(N[C@@H]3C[C@H]4CO[C@H](O4)[C@H]3O)ncc2Cl)sc2c(Cl)c(C(C)(C)O)cnc12 [Compound 275, (1S,3R,4S,5R)-3-((5-chloro-4-(7-chloro-6-(2-hydroxypropan-2-yl)-3-methylthieno[3,2-b]pyridin-2-yl)pyrimidin-2-yl)amino)-6,8-dioxabicyclo[3.2.1]octan-4-ol]	450 to 3000	40 to 150
